Patent US20210278408A1, “METHODS OF TREATMENT OF CANCER WITH SUBSTITUTED PYRROLE AND PYRAZOLE COMPOUNDS AND DIAGNOSIS OF CANCERS SUSCEPTIBLE TO TREATMENT WITH SUBSTITUTED PYRROLE AND PYRAZOLE COMPOUNDS” (Bantam Pharmaceutical, LLC, priority 2018, published 2021)
Like-named read-outs stand apart in the source and are kept apart here.

How the values were obtained:
SK-MEL-28 = experiment: Anti-proliferative activity, CellTiter-Glo, 72 hours: SK-MEL-28; type: cell-based, human; conditions: Homo sapiens, SK-MEL-28 (melanoma), Cell-Titre-Glo
Method: (§1) Anti-proliferative activity of BTM compounds. The anti-proliferative activities of Compound A197 and Compound B19 were compared to 4EGI-1 (a known cancer cell growth inhibitor) in a panel of 99 tumor lines. Methods: A panel of 96 tumor and 3 normal cell lines were tested for sensitivity to the test compound. The cell lines were cultured in standard media and pipetted into 96-well plates at the required plating densities. The cells were acclimated for 24 hours prior to compound testing. Compound was prepared as a stock of 20 mM in DMSO. To prepare dose response curves compound was serially diluted in DMSO and dispensed into the plate wells using a Tecan D300e digital dispenser. The final DMSO concentration was 0.15%. After 72 hours of incubation cell number was determined using the CellTiter-Glo® protocol according to the manufacturers instructions (Promega). In this assay, ATP is measured as a surrogate of cell number. The activity of the compound is determined by comparing untreated cells with treated cells and calculating the % of signal retained. Compound activity is measured as an EC50 of maximum level of efficacy and the two are used to compute an activity area. The table below provides a comparison of activity in a data sample.

Jurkat = experiment: Anti-proliferative activity, CellTiter-Glo, 72 hours: Jurkat; type: cell-based, human; conditions: Homo sapiens, Jurkat (T cell leukemia), Cell-Titre-Glo
Method: as §1

HT-1080 = experiment: Anti-proliferative activity, CellTiter-Glo, 72 hours: HT-1080; type: cell-based, human; conditions: Homo sapiens, HT-1080 (fibrosarcoma), Cell-Titre-Glo
Method: as §1

HK-2 = experiment: Anti-proliferative activity, CellTiter-Glo, 72 hours: HK-2; type: cell-based, human; conditions: Homo sapiens, HK-2 (kidney epilithial), Cell-Titre-Glo
Method: as §1

NHLF = experiment: Anti-proliferative activity, CellTiter-Glo, 72 hours: NHLF; type: cell-based; conditions: NHLF (human lung fibroblast), Cell-Titre-Glo
Method: as §1

MIA PaCa-2 = experiment: Anti-proliferative activity, CellTiter-Glo, 72 hours: MIA PaCa-2; type: cell-based, human; conditions: Homo sapiens, MIA PaCa-2 (pancreactic cancer (carcinoma)), Cell-Titre-Glo
Method: as §1

SU-DHL-10 = experiment: Anti-proliferative activity, CellTiter-Glo, 72 hours: SU-DHL-10; type: cell-based, human; conditions: Homo sapiens, SU-DHL10, SU-DHL-10 (B-cell lymphoma), Cell-Titre-Glo
Method: as §1

[1] = Single rising-dose mouse pharmacokinetics (PK) experiment; type: in vivo, CD-1 mice; conditions: for PK properties: mouse PK data
Method: FIG. 9 is a graph of mouse pharmacokinetics of a single rising dose PK of Compound A197 in female CD-1 mice. Compound was administered orally with the indicated dose. Blood was drawn by tail-bleed at the appropriate times and Compound A197 plasma levels determined by LC-MS. All values, mean±SD (n=3 mice per group).
A single rising-dose mouse pharmacokinetics (PK) experiment was performed at PGP-52 TI 10, 20, 40, 150 and 300 mg/kg Compound A197. Female CD-1 mice (20-30 grams in weight) were dosed by oral gavage or by intravenous injection with A197 dissolved in 1% NMP, 0.3% Tween-80 in 0.5% methylcellulose at a dose volume of 10 ml/kg. Following compound dosing, blood was collected by tail vein bleed into K2EDTA tubes at 30 minutes, 1, 3, 5, 7, 24 an 48 hrs following dosing. Plasma (5 μL) from A197 dosed animals was acidified with […] and 1% ammonium formate in methanol to precipitate protein and delipidate plasma. The material was centrifuged at 1000× and a 120 μL sample of the supernatant was then dried under vacuum. The deproteinated and delipidated residue was resuspended in 200 μL of 1% ammonium formate in methanol and the centrifugation and drying process repeated. The dried material is then resuspended in 100 μL of a mixture of 2 parts methanol: 1 part acetonitrile: 1 part water. A 10 μL sample of this material is then injected onto a Xbridge C18 2.5 μM, 3×30 mm, XP column attached to a TSQ Vantage LC/MS system for quantitation.

HUVEC = experiment: Anti-proliferative activity, CellTiter-Glo, 72 hours: HUVEC; type: cell-based, human; conditions: Homo sapiens, HUVEC (primary endolithial cells), Cell-Titre-Glo
Method: as §1

JHH-6 = experiment: Cell viability, CellTiter-Glo, 96 h: JHH-6; type: cell-based; conditions: for IC50: read-out: Absolute IC50
Method: (§2) Viability was determined by using the 50% inhibitory concentration (IC50) as determined with the CellTiter-Glo® Viability Assay (Promega). All cells were cultured under standard conditions in media supplemented with 10-15% Fetal Bovine Serum, at a temperature of 37° C., 5% CO2 and 95% humidity.
(§3) Cells were harvested during the logarithmic growth period, counted, and the cell concentration adjusted to 4.44×10^4 cells/mL using culture medium. A final cell density of 4×10^3 cells/well was added in a 90 μL cell suspension to plates A and B as shown.
(§4) Test plate B was incubated for 96 h in the humidified incubator at 37° C. with 5% CO2.
(§5) Following the incubation, the plate was equilibrated at room temperature for thirty minutes. CellTiter-Glo® (50 μL) was added to each well of the plate and contents mixed for five minutes on an orbital shaker to induce cell lysis. The luminescent signal was allowed to stabilize at room temperature for 20 minutes and the luminescence recorded.
(§6) IC50 (EC50) was calculated using a dose-response curve, fitted using a nonlinear regression model with a sigmoidal dose response. Survival rate was calculated using the formula:
(§7) The Surviving rate (%)=(LumTest article−LumMedium control)/(LumNon-treated−LumMedium control)×100%.
(§8) Absolute IC50 (EC50) was calculated according to the dose-response curve generated by the statistical software (GraphPad Prism 5.0).

LS 174T = experiment: Cell viability, CellTiter-Glo, 96 h: LS 174T; type: cell-based
Method: as §2, §3, §4, §5, §6, §7, §8

KU812 = experiment: Cell viability, CellTiter-Glo, 96 h: KU812; type: cell-based; conditions: for IC50: read-out: Absolute IC50
Method: as §2, §3, §4, §5, §6, §7, §8

HUH-6 CLONE5 = experiment: Cell viability, CellTiter-Glo, 96 h: HUH-6 CLONE5; type: cell-based; conditions: for IC50: read-out: Absolute IC50
Method: as §2, §3, §4, §5, §6, §7, §8

143B = experiment: Cell viability, CellTiter-Glo, 96 h: 143B; type: cell-based; conditions: for IC50: read-out: Absolute IC50
Method: as §2, §3, §4, §5, §6, §7, §8

D283 Med = experiment: Cell viability, CellTiter-Glo, 96 h: D283 Med; type: cell-based; conditions: for IC50: read-out: Absolute IC50
Method: as §2, §3, §4, §5, §6, §7, §8

[2] = Cell No. 407, read-out: Absolute IC50

Row | Compound | IC50 (SK-MEL-28) [µM] | IC50 (Jurkat) [µM] | IC50 (HT-1080) [µM] | IC50 (HK-2) [µM] | IC50 (NHLF) [µM] | IC50 (MIA PaCa-2) [µM] | IC50 (SU-DHL-10) [µM] | PK properties [1] | IC50 (HUVEC) [µM] | % inhibition at top conc. (JHH-6) [%] | IC50 (JHH-6) [µM] | % inhibition at top conc. (LS 174T; Cell No. 406) [%] | % inhibition at top conc. (LS 174T; Cell No. 407) [%] | IC50 (LS 174T; [2]) [µM] | % inhibition at top conc. (KU812) [%] | % inhibition at top conc. (HUH-6 CLONE5) [%] | IC50 (HUH-6 CLONE5) [µM] | % inhibition at top conc. (143B) [%] | % inhibition at top conc. (D283 Med) [%] | also measured
1 | COC(=O)c1c(-c2cccc(F)c2)c(C)nn1-c1nc(C2=CCC(C(F)(F)F)CC2)c(SC(C)C)s1 (single isomer, unassigned) [Compound B19, methyl 4-(3-fluorophenyl)-1-(5-(isopropylthio)-4-(4-(trifluoromethyl)cyclohex-1-en-1-yl)thiazol-2-yl)-3-methyl-1H-pyrazole-5-carboxylate] | > 30 | 0.166 | 0.528 | > 30 | > 30 | 0.447 | 0.119 | drug-like PK properties suitable for once daily dosing | > 30 |  |  |  |  |  |  |  |  |  |  | 
2 | N.N.[Cl][Pt][Cl] [Cisplatin, reference compound] |  |  |  |  |  |  |  |  |  | 95.32 | 3.12 | 96.60 | 96.74 | 8.54 | 99.20 | 99.43 | 6.33 | 99.94 | 99.39 | IC50 (LS 174T; Cell No. 406, read-out: Absolute IC50): 5.89 µM; IC50 (KU812): 1.95 µM; IC50 (143B): 3.2 µM; IC50 (D283 Med): 0.7 µM
3 | Cc1nn(-c2nc(-c3ccc(C(F)(F)F)cc3)c(SC(C)C)s2)c(C(=O)O)c1-c1cccc(F)c1 [Compound A197, 4-(3-fluorophenyl)-1-(5-(isopropylthio)-4-(4-(trifluoromethyl)phenyl)thiazol-2-yl)-3-methyl-1H-pyrazole-5-carboxylic acid] | > 30 | 0.179 | 0.725 | > 30 | > 30 | 0.623 | 0.136 | drug-like PK properties suitable for once daily dosing | > 30 | 45.19 | > 30 | 15.79 | 27.00 | > 30 | 27.53 | 11.18 | > 30 | 27.55 | 66.67 | IC50 (LS 174T; Homo sapiens, LS174T, Cell No. 406, read-out: Absolute IC50): > 30 µM; IC50 (KU812; Homo sapiens): > 30 µM; IC50 (143B; Homo sapiens): > 30 µM; IC50 (D283 Med; Homo sapiens): > 30 µM; dose proportionality ([1]; single rising dose 10, 20, 40, 150 and 300 mg/kg, oral, female CD-1 mice, plasma by LC/MS): dose proportionality was observed up to 300 mg/kg
